Results reported in article PMC10065276, “Enhanced therapeutic window for antimicrobial Pept-ins by investigating their structure-activity relationship” (PLOS ONE, 2023).
Positions of bridges follow the written chain, without caps; N, C: chain ends. Residues, ends and D or L forms follow the SMILES beside them.

System: E. coli BL21
Conditions: BL21, 17 h
Protocol: The peptide MIC was determined via the broth microdilution assay according to the EUCAST guideline, using 96-well polystyrene flat-bottom microtiter plates (BD Biosciences). Briefly, a single colony was inoculated in 5 mL Mueller-Hinton (MH) medium and incubated, while shaking at 37°C, to the end-exponential growth phase. The bacterial culture was subsequently diluted to 0.005 McFarland (McF) (~1.5x10^6 CFU/mL) with fresh MH medium. Two-fold serial peptide-dilutions were prepared in 50 μL MH medium resulting in a concentration range of 0.75 to 100 μg/mL (at least three wells for each concentration). Afterwards, 50 μL of the freshly diluted bacterial suspension (0.005 McF) was mixed with different peptide concentrations in the 96-well plate, performed in triplicates. The plate was ultimately incubated at 37°C overnight without shaking for 17 hours. The MIC was determined as the lowest peptide concentration without visible bacterial growth.

In order of falling “BL21 MIC” value:
1. CC(C)C[C@H](NC(=O)CNC(=O)[C@H](CCCNC(=N)N)NC(=O)[C@@H]1CCCN1C(=O)[C@H](CCCNC(=N)N)NC(=O)[C@H](CCCNC(=N)N)NC(=O)[C@@H](NC(=O)CNC(=O)[C@H](C)NC(=O)[C@H](CC(C)C)NC(=O)CNC(=O)[C@H](CC(C)C)NC(=O)CNC(=O)[C@@H](N)CCCNC(=N)N)C(C)C)C(=O)NCC(=O)N[C@@H](CC(C)C)C(=O)N[C@@H](C)C(=O)NCC(=O)N[C@H](C(=O)N[C@@H](CCCNC(=N)N)C(=O)N[C@@H](CCCNC(=N)N)C(=O)O)C(C)C [L6G (P2)] (H-RGLGLAGVRRPRGLGLAGVRR-OH)  100.00 µg/mL
2. CC(C)C[C@H](NC(=O)CNC(=O)[C@H](CCCNC(=N)N)NC(=O)[C@@H]1CCCN1C(=O)[C@H](CCCNC(=N)N)NC(=O)[C@H](CCCNC(=N)N)NC(=O)[C@@H](NC(=O)[C@H](CC(C)C)NC(=O)[C@H](C)NC(=O)[C@H](C)NC(=O)CNC(=O)[C@H](CC(C)C)NC(=O)CNC(=O)[C@@H](N)CCCNC(=N)N)C(C)C)C(=O)NCC(=O)N[C@@H](CC(C)C)C(=O)N[C@@H](C)C(=O)N[C@@H](CC(C)C)C(=O)N[C@H](C(=O)N[C@@H](CCCNC(=N)N)C(=O)N[C@@H](CCCNC(=N)N)C(=O)O)C(C)C [Peptide P2_L5A] (H-RGLGAALVRRPRGLGLALVRR-OH)  50.00 µg/mL
3. CC[C@H](C)[C@H](NC(=O)CNC(=O)[C@H](CC(C)C)NC(=O)[C@H](C)NC(=O)[C@@H]1CCCN1C(=O)[C@H](C)NC(=O)[C@H](CCCNC(=N)N)NC(=O)[C@H](CC(C)C)NC(=O)[C@H](C)NC(=O)[C@@H](NC(=O)[C@H](C)NC(=O)[C@@H](NC(=O)CNC(=O)[C@H](CC(C)C)NC(=O)[C@@H](N)CCCNC(=N)N)[C@@H](C)CC)C(C)C)C(=O)N[C@@H](C)C(=O)N[C@H](C(=O)N[C@@H](C)C(=O)N[C@@H](CC(C)C)C(=O)N[C@@H](C)C(=O)N[C@@H](CCCNC(=N)N)C(=O)O)C(C)C [Peptide P33_3R_4] (H-RLGIAVALRAPALGIAVALAR-OH)  50.00 µg/mL
4. CC[C@H](C)[C@H](NC(=O)CNC(=O)[C@H](CC(C)C)NC(=O)[C@H](CCCNC(=N)N)NC(=O)[C@@H]1CCCN1C(=O)[C@H](CCCNC(=N)N)NC(=O)[C@H](CCCNC(=N)N)NC(=O)[C@H](CC(C)C)NC(=O)[C@H](C)NC(=O)[C@@H](NC(=O)[C@H](C)NC(=O)[C@@H](NC(=O)CNC(=O)[C@H](CC(C)C)NC(=O)[C@H](C)N)[C@@H](C)CC)C(C)C)C(=O)N[C@@H](C)C(=O)N[C@H](C(=O)N[C@@H](C)C(=O)N[C@@H](CC(C)C)C(=O)N[C@@H](C)C(=O)N[C@@H](CCCNC(=N)N)C(=O)O)C(C)C [Peptide P33_4R_2] (H-ALGIAVALRRPRLGIAVALAR-OH)  25.00 µg/mL
5. CSCC[C@H](NC(=O)[C@H](C)NC(=O)[C@H](CCCNC(=N)N)NC(=O)[C@@H](NC(=O)[C@H](CC(C)C)NC(=O)[C@H](C)NC(=O)[C@H](CC(C)C)NC(=O)CNC(=O)[C@H](CC(C)C)NC(=O)CNC(=O)[C@@H](N)CCCNC(=N)N)C(C)C)C(=O)N[C@@H](CCCNC(=N)N)C(=O)NCC(=O)N[C@@H](CC(C)C)C(=O)NCC(=O)N[C@@H](CC(C)C)C(=O)N[C@@H](C)C(=O)N[C@@H](CC(C)C)C(=O)N[C@H](C(=O)N[C@@H](C)C(=O)N[C@@H](CCCNC(=N)N)C(=O)O)C(C)C [Peptide P2_4R_M] (H-RGLGLALVRAMRGLGLALVAR-OH)  12.50 µg/mL
6. CC[C@H](C)[C@H](NC(=O)CNC(=O)[C@H](CC(C)C)NC(=O)[C@H](CCCNC(=N)N)NC(=O)[C@@H]1CCCN1C(=O)[C@H](CCCNC(=N)N)NC(=O)[C@H](CCCNC(=N)N)NC(=O)[C@H](CC(C)C)NC(=O)[C@H](C)NC(=O)[C@@H](NC(=O)[C@H](C)NC(=O)[C@H](C)NC(=O)CNC(=O)[C@H](CC(C)C)NC(=O)[C@@H](N)CCCNC(=N)N)C(C)C)C(=O)N[C@@H](C)C(=O)N[C@H](C(=O)N[C@@H](C)C(=O)N[C@@H](CC(C)C)C(=O)N[C@@H](CCCNC(=N)N)C(=O)N[C@@H](CCCNC(=N)N)C(=O)O)C(C)C [Peptide P33-I4A] (H-RLGAAVALRRPRLGIAVALRR-OH)  12.50 µg/mL
7. CC(C)C[C@H](NC(=O)CNC(=O)[C@H](CCCNC(=N)N)NC(=O)[C@@H]1CCCN1C(=O)[C@H](CCCNC(=N)N)NC(=O)[C@H](C)NC(=O)[C@@H](NC(=O)[C@H](CC(C)C)NC(=O)[C@H](C)NC(=O)[C@H](CC(C)C)NC(=O)CNC(=O)[C@H](CC(C)C)NC(=O)CNC(=O)[C@@H](N)CCCNC(=N)N)C(C)C)C(=O)NCC(=O)N[C@@H](CC(C)C)C(=O)N[C@@H](C)C(=O)N[C@@H](CC(C)C)C(=O)N[C@H](C(=O)N[C@@H](CCCNC(=N)N)C(=O)N[C@@H](CCCNC(=N)N)C(=O)O)C(C)C [Peptide P2_R9A] (H-RGLGLALVARPRGLGLALVRR-OH)  12.50 µg/mL
8. CC[C@H](C)[C@H](NC(=O)CNC(=O)[C@H](CC(C)C)NC(=O)[C@H](CCCNC(=N)N)NC(=O)[C@@H]1CCCN1C(=O)[C@H](C)NC(=O)[C@H](CCCNC(=N)N)NC(=O)[C@H](CC(C)C)NC(=O)[C@H](C)NC(=O)[C@@H](NC(=O)[C@H](C)NC(=O)[C@@H](NC(=O)CNC(=O)[C@H](CC(C)C)NC(=O)[C@@H](N)CCCNC(=N)N)[C@@H](C)CC)C(C)C)C(=O)N[C@@H](C)C(=O)N[C@H](C(=O)N[C@@H](C)C(=O)N[C@@H](CC(C)C)C(=O)N[C@@H](C)C(=O)N[C@@H](CCCNC(=N)N)C(=O)O)C(C)C [Peptide P33_4R_4] (H-RLGIAVALRAPRLGIAVALAR-OH)  12.50 µg/mL
9. CC(C)C[C@H](NC(=O)CNC(=O)[C@H](CCCNC(=N)N)NC(=O)[C@@H]1CCCN1C(=O)[C@H](CCCNC(=N)N)NC(=O)[C@H](CCCNC(=N)N)NC(=O)[C@@H](NC(=O)[C@H](CC(C)C)NC(=O)[C@H](Cc1c[nH]c2ccccc12)NC(=O)[C@H](CC(C)C)NC(=O)CNC(=O)[C@H](CC(C)C)NC(=O)CNC(=O)[C@@H](N)CCCNC(=N)N)C(C)C)C(=O)NCC(=O)N[C@@H](CC(C)C)C(=O)N[C@@H](Cc1c[nH]c2ccccc12)C(=O)N[C@@H](CC(C)C)C(=O)N[C@H](C(=O)N[C@@H](CCCNC(=N)N)C(=O)N[C@@H](CCCNC(=N)N)C(=O)O)C(C)C [A5W (P2)] (H-RGLGLWLVRRPRGLGLWLVRR-OH)  12.50 µg/mL
10. CC(C)C[C@H](NC(=O)CNC(=O)[C@@H](N)CCCNC(=N)N)C(=O)NCC(=O)N[C@@H](CC(C)C)C(=O)N[C@@H](C)C(=O)N[C@@H](CC(C)C)C(=O)N[C@H](C(=O)N[C@@H](CCCNC(=N)N)C(=O)N[C@@H](CCCNC(=N)N)C(=O)N1CCC[C@H]1C(=O)N[C@@H](CCCNC(=N)N)C(=O)N[C@@H](C)C(=O)N[C@@H](CC(C)C)C(=O)NCC(=O)N[C@@H](CC(C)C)C(=O)N[C@@H](C)C(=O)N[C@@H](CC(C)C)C(=O)N[C@H](C(=O)N[C@@H](CCCNC(=N)N)C(=O)N[C@@H](CCCNC(=N)N)C(=O)O)C(C)C)C(C)C [Peptide P2_G13A] (H-RGLGLALVRRPRALGLALVRR-OH)  12.50 µg/mL
11. CC[C@H](C)[C@H](NC(=O)CNC(=O)[C@H](CC(C)C)NC(=O)[C@H](CCCNC(=N)N)NC(=O)[C@@H]1CCCN1C(=O)[C@H](CC(C)C)NC(=O)[C@H](C)NC(=O)[C@@H](NC(=O)[C@H](C)NC(=O)[C@@H](NC(=O)CNC(=O)[C@H](CC(C)C)NC(=O)[C@@H](N)CCCNC(=N)N)[C@@H](C)CC)C(C)C)C(=O)N[C@@H](C)C(=O)N[C@H](C(=O)N[C@@H](C)C(=O)N[C@@H](CC(C)C)C(=O)N[C@@H](CCCNC(=N)N)C(=O)O)C(C)C [Peptide P33_3R_1] (H-RLGIAVALPRLGIAVALR-OH)  12.5 µg/mL
12. CC[C@H](C)[C@H](NC(=O)CNC(=O)[C@H](CC(C)C)NC(=O)[C@@H](N)CCCNC(=N)N)C(=O)N[C@@H](C)C(=O)N[C@@H](C)C(=O)N[C@@H](C)C(=O)N[C@@H](CC(C)C)C(=O)N[C@@H](CCCNC(=N)N)C(=O)N[C@@H](CCCNC(=N)N)C(=O)N1CCC[C@H]1C(=O)N[C@@H](CCCNC(=N)N)C(=O)N[C@@H](CC(C)C)C(=O)NCC(=O)N[C@H](C(=O)N[C@@H](C)C(=O)N[C@H](C(=O)N[C@@H](C)C(=O)N[C@@H](CC(C)C)C(=O)N[C@@H](CCCNC(=N)N)C(=O)N[C@@H](CCCNC(=N)N)C(=O)O)C(C)C)[C@@H](C)CC [Peptide P33-V6A] (H-RLGIAAALRRPRLGIAVALRR-OH)  6.25 µg/mL

With `CC(C)C[C@H](NC(=O)CNC(=O)[C@H](CCCNC(=N)N)NC(=O)[C@@H]1CSSC[C@H](NC(=O)[C@@H](NC(=O)[C@H](CC(C)C)NC(=O)[C@H](C)NC(=O)[C@H](CC(C)C)NC(=O)CNC(=O)[C@H](CC(C)C)NC(=O)CNC(=O)[C@@H](N)CCCNC(=N)N)C(C)C)C(=O)N[C@@H](CCCNC(=N)N)C(=O)N[C@@H](CCCNC(=N)N)C(=O)N[C@@H](CCCNC(=N)N)C(=O)N[C@@H](Cc2ccccc2)C(=O)N1)C(=O)NCC(=O)N[C@@H](CC(C)C)C(=O)N[C@@H](C)C(=O)N[C@@H](CC(C)C)C(=O)N[C@H](C(=O)N[C@@H](CCCNC(=N)N)C(=O)N[C@@H](CCCNC(=N)N)C(=O)O)C(C)C` [Peptide P2_H12_FC] (H-RGLGLALVCRRRFCRGLGLALVRR-OH; disulfide 9-14) the “BL21 MIC, SS bond” value was 3.50 µg/mL.

With `CC(C)C[C@H](NC(=O)CNC(=O)[C@H](CCCNC(=N)N)NC(=O)[C@@H]1CSSC[C@H](NC(=O)[C@@H](NC(=O)[C@H](CC(C)C)NC(=O)[C@H](C)NC(=O)[C@H](CC(C)C)NC(=O)CNC(=O)[C@H](CC(C)C)NC(=O)CNC(=O)[C@@H](N)CCCNC(=N)N)C(C)C)C(=O)N[C@@H](CCCNC(=N)N)C(=O)N[C@@H](CCCNC(=N)N)C(=O)N[C@@H](CCCNC(=N)N)C(=O)N[C@@H](Cc2ccccc2)C(=O)N1)C(=O)NCC(=O)N[C@@H](CC(C)C)C(=O)N[C@@H](C)C(=O)N[C@@H](CC(C)C)C(=O)N[C@H](C(=O)N[C@@H](CCCNC(=N)N)C(=O)N[C@@H](CCCNC(=N)N)C(=O)O)C(C)C` [Peptide P2_H12_FC] (H-RGLGLALVCRRRFCRGLGLALVRR-OH; disulfide 9-14) the “BL21 MIC, no SS bond” value was 6.25 µg/mL.

`CC[C@H](C)[C@H](NC(=O)CNC(=O)[C@H](CC(C)C)NC(=O)[C@H](C)NC(=O)[C@@H]1CCCN1C(=O)[C@H](CCCNC(=N)N)NC(=O)[C@H](C)NC(=O)[C@H](CC(C)C)NC(=O)[C@H](C)NC(=O)[C@@H](NC(=O)[C@H](C)NC(=O)[C@@H](NC(=O)CNC(=O)[C@H](CC(C)C)NC(=O)[C@@H](N)CCCNC(=N)N)[C@@H](C)CC)C(C)C)C(=O)N[C@@H](C)C(=O)N[C@H](C(=O)N[C@@H](C)C(=O)N[C@@H](CC(C)C)C(=O)N[C@@H](C)C(=O)N[C@@H](CCCNC(=N)N)C(=O)O)C(C)C` [Peptide P33_3R_3] (H-RLGIAVALARPALGIAVALAR-OH) was tested, and the “BL21 MIC” value was greater than 100 µg/mL.
